# Measurements reported in US12297213B2, “Metal hydroxide complex comprising modified multilayer hydroxide structure comprising active ingredient and method of manufacturing same” (CNPHARM CO., LTD., priority 2018, dated 2025).
# Legend:
# COL3A1 mRNA = experiment: COL3A1 (type 3 collagen) mRNA expression by qRT-PCR in human dermal fibroblasts; format: cell-based; settings: positive control at 5.0 ng/ml, mean±SD
# Protocol: (§1) For the in-vitro collagen production increase test of Example 3 (hereinafter, referred to as “JL-101 powder”), normal human dermal fibroblasts (HDFs) were used. In order to set the test solution concentration of the sample, HDFs were treated with the sample material for 24 hr and the concentration range in which cytotoxicity was not observed was confirmed through a cytotoxicity test. HDFs were treated with 'JL-101 powder' at the set test solution concentration in the same manner, and thus the expression levels of COL1A1 and COL3A1 mRNA, which are collagen genes, were compared and analyzed using real-time PCR (RT-PCR). […] The expression level of a collagen gene was determined by measuring the expression levels of a COL1A1 gene, which is a representative component of type 1 collagen, and of a COL3A1 gene, which is a representative component of type 3 collagen, using quantitative real-time PCR (qRT-PCR) (Peter, 2008). […] The concentration and purity (A260/A280 and A260/A230 ratio) of total mRNA were measured using a MaestroNano® microvolume spectrophotometer (Maestrogen, Las Vegas, NV, USA), and only total mRNA having high purity of 2.0 or more was selected. […] Mix Plus (Solis BioDyne, Estonia), and the expression of the corresponding gene was analyzed using Line-Gene K software (Bioer Technology Co. Ltd., Hangzhou, China). […]
# COL1A1 mRNA = experiment: COL1A1 (type 1 collagen) mRNA expression by qRT-PCR in human dermal fibroblasts; format: cell-based; settings: positive control at 5.0 ng/ml, mean±SD
# Protocol: as §1
substance,measurement,setting,value
TGF-β,increase of expression of COL3A1 mRNA compared to the negative control,COL3A1 mRNA,22.93±6.21%
same,increase of expression of COL1A1 mRNA compared to the negative control,COL1A1 mRNA,219.65±7.25%
